Values quoted from earlier work, collected in US20040248861A1, “Modified delta5-androstenes having improved bioavailability” (priority 2003, published 2004).

Tests used:
[1] = 200 mg/day for 28 days
[2] = system: flu viruses; conditions: mice infected with flu viruses; to some of the viruses
[3] = system: virus similar to HIV; conditions: doses as low as 8 mg/kg/day
[4] = single transdermal dose of 25 mg
[5] = supplement to diet
[6] = monkeys, very high doses (equivalent to about 70 grams/day for a human)
[7] = patients with normal adrenal function taking supplemental DHEA
[8] = not given; remark: listed apart in the source

## C[C@]12CC[C@H](O)CC1=CC(=O)[C@@H]1[C@@H]2CC[C@]2(C)C(=O)CC[C@@H]12 [7-keto-DHEA, 7-keto-dehydroepiandrosterone]
[1]
  safety problems in clinical trials: no safety problems
[2]
  anti-viral antibodies: increase
[3]
  bodyweight: regained bodyweight
In vivo
  metabolism to estrogens or testosterone: does not metabolize
Supplementary 7-keto-DHEA
  estradiol levels in the blood: decrease
  testosterone levels in the blood: decrease
[4]
  blood levels of HDL-cholesterol: improved
[5]
  T3 thyroid stimulating hormone: increased
  body fat: statistically significant decreased
  bodyweight: statistically significant decreased
[6]
  salivation: caused excess salivation

## C[C@]12CC[C@H](O)CC1=CC[C@@H]1[C@@H]2CC[C@]2(C)C(=O)CC[C@@H]12 [DHEA, dehydroepiandrosterone]
[7]
  acne (share of patients): over 50%

## C[C@]12CC[C@H]3[C@@H](CCC4=CC(=O)CC[C@@]43C)[C@@H]1CC[C@@H]2O [free testosterone, testosterone]
[8]; oral, equivalent dose (63 mg)
  effect on serum levels of testosterone: no noticeable effect

## CCCCCCCCCCC(=O)O[C@H]1CC[C@H]2[C@@H]3CCC4=CC(=O)CC[C@]4(C)[C@H]3CC[C@]12C [testosterone undecanoate]
[8]; single oral dose of 100 mg, dissolved in oil
  increase in serum levels of testosterone: 2.3 fold
